The values below come from US20050002859A1, “COX-2-targeted imaging agents” (Vanderbilt University, priority 2003, published 2005).

By IC50 is commonly meant the point on the concentration scale where inhibition reaches its midpoint. The term ED50 denotes the dose that gives a 50% effect, or the effect in half of the subjects. Low values mean greater potency, high ones weaker potency.

For one data set, the target named is T1, COX-1 (Ovis aries, UniProt P05979).
T1 sequence (P05979 25-600): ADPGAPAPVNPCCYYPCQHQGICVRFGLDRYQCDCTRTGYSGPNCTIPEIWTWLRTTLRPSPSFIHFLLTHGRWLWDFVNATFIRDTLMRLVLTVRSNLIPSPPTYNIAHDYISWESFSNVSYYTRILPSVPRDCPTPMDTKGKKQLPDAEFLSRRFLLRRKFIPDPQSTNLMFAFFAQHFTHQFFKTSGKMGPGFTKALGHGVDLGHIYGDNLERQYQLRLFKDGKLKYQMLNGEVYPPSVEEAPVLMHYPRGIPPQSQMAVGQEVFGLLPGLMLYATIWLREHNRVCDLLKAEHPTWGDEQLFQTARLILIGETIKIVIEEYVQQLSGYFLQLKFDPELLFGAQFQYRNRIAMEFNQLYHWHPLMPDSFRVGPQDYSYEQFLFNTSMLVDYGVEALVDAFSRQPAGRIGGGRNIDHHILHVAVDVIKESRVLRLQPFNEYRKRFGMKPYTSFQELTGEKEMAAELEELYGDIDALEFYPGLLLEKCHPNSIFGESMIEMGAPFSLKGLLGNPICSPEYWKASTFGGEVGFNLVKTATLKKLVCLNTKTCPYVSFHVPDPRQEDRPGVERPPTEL
The data set can be described thus: Inhibition of COX-1 by NSAID derivatives (species not stated). The format is biochemical. The protocol:
(§1) While the TLC assay described above provides considerable information, it is labor-intensive for screening large numbers of candidate NSAID derivatives. Accordingly, as an alternative, a simplified assay can be used. Incubation conditions can be essentially as described above, except all candidate derivatives are first screened at a concentration of 1 mM with a preincubation time of 30 minutes. The substrate need not be radiolabeled, and the reaction can be stopped by the addition of 2 μL of formic acid. Product formation can be quantitated by enzyme-linked immunosorbent assay (ELISA) using commercially available kits. […] Other in vitro assay methods for screening NSAID derivatives for activity (e.g., selectivity for the COX-2 enzyme) can also be used by the skilled artisan.

The conditions of data set [1]: rat, in vivo.
The nature of data set [2]: Metabolism by rat liver microsomes. The format is in vitro ADME. To be noted: 0.125 mg/mL protein. As to the method: Preliminary metabolic studies were conducted using isolated liver microsome preparations.
A general note: Microsomes from liver hold many membrane-bound enzymes, among them those of drug oxidation.

For data set [3], the system named is rat carageenan footpad edema. The experiment in a line: Rat carageenan footpad edema model. Format: in vivo. As to the method: The first is the rat carageenan footpad model. Maximal edema is obtained in this model 3 hours after carageenan injection.
Data set [4] deals with T2, COX-2 activity in RAW 264.7 murine macrophage cell line (Mus musculus, UniProt Q05769).
T2 construct: The macrophages were exposed to lipopolysaccharide and γ-interferon to induce COX-2; endogenous in cells
T2 sequence (Q05769 18-604): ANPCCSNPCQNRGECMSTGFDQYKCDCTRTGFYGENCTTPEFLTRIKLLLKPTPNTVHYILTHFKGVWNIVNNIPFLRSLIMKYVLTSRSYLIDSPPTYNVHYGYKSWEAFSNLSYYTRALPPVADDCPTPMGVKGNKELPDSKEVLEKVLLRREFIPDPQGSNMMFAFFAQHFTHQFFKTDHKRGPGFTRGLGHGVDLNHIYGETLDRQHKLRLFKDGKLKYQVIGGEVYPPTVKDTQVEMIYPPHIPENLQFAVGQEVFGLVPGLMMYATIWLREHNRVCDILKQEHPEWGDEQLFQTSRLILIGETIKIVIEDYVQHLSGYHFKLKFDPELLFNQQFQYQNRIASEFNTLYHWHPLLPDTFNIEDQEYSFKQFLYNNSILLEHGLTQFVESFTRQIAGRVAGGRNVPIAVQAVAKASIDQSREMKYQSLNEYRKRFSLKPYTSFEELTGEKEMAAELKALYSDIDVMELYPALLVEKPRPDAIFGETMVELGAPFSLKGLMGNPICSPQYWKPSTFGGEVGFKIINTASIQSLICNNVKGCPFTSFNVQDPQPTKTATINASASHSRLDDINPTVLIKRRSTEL
The data set can be described thus: Inhibition of COX-2 activity (PGD2 synthesis) in activated RAW264.7 macrophages. To be noted: read-out: IC50 for inhibition of COX-2 activity in RAW 264.7 macrophages. The format is cell-based. From the text:
Thus, NSAID derivatives that are identified as potentially useful in the methods described herein can be further tested using, for example, the RAW264.7 murine macrophage cell line. These cells are readily available (for example, from the American Type Culture Collection, Manassas, Va., United States of America) and are easily cultured in large numbers. They normally express low levels of COX-1 and very low to undetectable levels of COX-2. Upon exposure to bacterial lipopolysaccharide (LPS), however, COX-2 levels increase dramatically over the ensuing 24 hour period, and the cells produce PGD2 and PGE2 from endogenous arachidonic acid stores (generally, ˜1 nmol/10^7 cells total PG formation). After LPS exposure, the addition of exogenous arachidonic acid results in the formation of additional PGD2 and PGE2 as a result of metabolism by the newly synthesized COX-2.
This system provides a number of approaches for testing the inhibitory potency of COX-2-selective ligands (e.g., inhibitors). In general, following LPS activation, cells can be treated for 30 minutes with the desired concentrations of candidate derivative(s) in DMSO. ^14C-arachidonic acid can be added, and the cells can be incubated for 15 minutes at 37° C. Product formation can be assessed following extraction and TLC separation of the culture medium. Alternatively, the effects of candidate derivatives on PG synthesis from endogenous arachidonic acid can be assessed by incubating cells with desired concentrations of candidate derivatives 30 minutes prior to LPS exposure. Following a 24 hour incubation, medium can be collected and extracted, and the amount of PGD2 and/or PGE2 can be assayed by gas chromatography-mass spectrometry, liquid chromatography-mass spectrometry, or ELISA.
Inhibition of COX-2 Activity in Activated RAW264.7. Protocols for COX-2 inhibition in RAW264.7 cells have been previously described (Kalgutkar et al., 1998b). Briefly, cells (6.2×10^6 cells/T25 flask) were activated with lipopolysaccharide (1 μg/mL) and γ-interferon (10 U/mL) in serum-free DMEM for 7 hours and then treated with inhibitor (0-2 μM) for 30 minutes at 37° C. Exogenous arachidonate metabolism was determined by adding [1-^14C]-arachidonate acid (20 μM) for 15 minutes at 37° C. IC50 values are the average of two independent determinations.
The macrophages were exposed to lipopolysaccharide and γ-interferon to induce COX-2 and then treated with several concentrations of Compound 355.

For another data set, the target named is T3, COX-2 (Homo sapiens, UniProt P35354).
T3 sequence (P35354 18-604): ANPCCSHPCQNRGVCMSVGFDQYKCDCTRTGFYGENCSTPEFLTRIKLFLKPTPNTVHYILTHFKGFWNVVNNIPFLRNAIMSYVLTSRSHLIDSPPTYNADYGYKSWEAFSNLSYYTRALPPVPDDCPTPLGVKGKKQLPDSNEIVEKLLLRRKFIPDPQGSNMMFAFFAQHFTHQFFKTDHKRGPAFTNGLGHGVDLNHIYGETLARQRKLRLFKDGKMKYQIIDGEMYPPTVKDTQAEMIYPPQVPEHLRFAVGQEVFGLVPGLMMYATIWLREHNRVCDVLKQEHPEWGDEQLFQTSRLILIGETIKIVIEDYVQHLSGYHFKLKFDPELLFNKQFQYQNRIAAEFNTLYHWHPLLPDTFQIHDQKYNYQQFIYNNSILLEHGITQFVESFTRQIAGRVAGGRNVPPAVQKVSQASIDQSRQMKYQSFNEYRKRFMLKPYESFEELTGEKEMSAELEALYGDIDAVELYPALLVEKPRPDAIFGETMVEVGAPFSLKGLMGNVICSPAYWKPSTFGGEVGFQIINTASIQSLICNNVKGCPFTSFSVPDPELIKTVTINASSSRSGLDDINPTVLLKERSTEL
The experiment in a line: Inhibition of purified COX-2 by NSAID derivatives (species not stated). Format: biochemical. To be noted: purified enzyme. As to the method: as §1

In data set [5] the target is T4, COX-1 activity in uninduced macrophages (Mus musculus, UniProt P22437).
T4 construct: endogenous in cells
T4 sequence (P22437 27-602): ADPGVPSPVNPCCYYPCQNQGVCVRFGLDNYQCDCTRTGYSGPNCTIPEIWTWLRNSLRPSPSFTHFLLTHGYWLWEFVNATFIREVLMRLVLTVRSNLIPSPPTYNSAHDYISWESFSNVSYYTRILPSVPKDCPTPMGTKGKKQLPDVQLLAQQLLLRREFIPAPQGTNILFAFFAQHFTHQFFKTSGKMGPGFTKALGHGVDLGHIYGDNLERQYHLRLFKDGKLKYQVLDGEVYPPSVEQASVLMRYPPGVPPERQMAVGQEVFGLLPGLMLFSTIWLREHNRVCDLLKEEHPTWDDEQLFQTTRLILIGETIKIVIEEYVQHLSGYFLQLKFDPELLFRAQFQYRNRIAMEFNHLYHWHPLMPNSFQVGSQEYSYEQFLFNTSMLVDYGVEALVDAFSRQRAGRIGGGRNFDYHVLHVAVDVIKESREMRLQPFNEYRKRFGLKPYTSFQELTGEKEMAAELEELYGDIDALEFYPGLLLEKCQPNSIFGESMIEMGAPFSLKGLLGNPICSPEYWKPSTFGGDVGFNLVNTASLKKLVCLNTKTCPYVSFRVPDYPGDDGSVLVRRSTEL
The data set can be described thus: Inhibition of COX-1 activity in uninduced macrophages. The format is cell-based, murine.

Molecules are shown by their SMILES.

Take `COc1ccc2c(c1)c(CC(=O)Nc1ccc(F)cc1)c(C)n2C(=O)c1ccc(Cl)cc1` [Compound 18, p-fluorophenyl derivative of indomethacin amide]: at COX-1, the 50% inhibitory concentration (IC50) is over 66 µM. The clearance half-life in data set [1] stood at 4 h. In data set [1] (po), the half-life in plasma was determined as 4 h and the oral bioavailability is reported as 30%. For the same compound, the “half-life, rat liver microsomes” value in data set [2] is 1.67 h. Besides, in data set [3] (following oral installation), the “anti-inflammatory activity in rat footpad edema assay” value is recorded as “anti-inflammatory activity”. The 50% effective dose (ED50) in data set [3] (rat carageenan footpad model (Example 14)) amounted to 0.25 mg/kg.

With `CCCCC#CCSc1ccccc1OC(=O)CF` [F-APHS], the results for the IC50 (in data set [4]; against COX-2) were 2.8 µM and 4 µM, respectively. For the same compound, the “concentration up to which COX-1 activity is not inhibited” value in data set [5] was over 32 µM.
